Measured values reported in patent publication US9382234B2, “Enhancer of Zeste Homolog 2 inhibitors” (GlaxoSmithKline LLC, priority 2012, dated 2016).

Molecular target: T1, EZH2 within the PRC2 complex (Homo sapiens, UniProt Q15910)
T1 construct: FLAG; made in house; host or cells: Sf9 cells
Experiment: EZH2 methyltransferase scintillation proximity assay (SPA) with PRC2 complex
Assay type: biochemical
Conditions: 3H-SAM methyl transfer to Histone H3 of HeLa mononucleosomes; 30 min preincubation, 1 hour reaction

T1 sequence (Q15910 whole entry): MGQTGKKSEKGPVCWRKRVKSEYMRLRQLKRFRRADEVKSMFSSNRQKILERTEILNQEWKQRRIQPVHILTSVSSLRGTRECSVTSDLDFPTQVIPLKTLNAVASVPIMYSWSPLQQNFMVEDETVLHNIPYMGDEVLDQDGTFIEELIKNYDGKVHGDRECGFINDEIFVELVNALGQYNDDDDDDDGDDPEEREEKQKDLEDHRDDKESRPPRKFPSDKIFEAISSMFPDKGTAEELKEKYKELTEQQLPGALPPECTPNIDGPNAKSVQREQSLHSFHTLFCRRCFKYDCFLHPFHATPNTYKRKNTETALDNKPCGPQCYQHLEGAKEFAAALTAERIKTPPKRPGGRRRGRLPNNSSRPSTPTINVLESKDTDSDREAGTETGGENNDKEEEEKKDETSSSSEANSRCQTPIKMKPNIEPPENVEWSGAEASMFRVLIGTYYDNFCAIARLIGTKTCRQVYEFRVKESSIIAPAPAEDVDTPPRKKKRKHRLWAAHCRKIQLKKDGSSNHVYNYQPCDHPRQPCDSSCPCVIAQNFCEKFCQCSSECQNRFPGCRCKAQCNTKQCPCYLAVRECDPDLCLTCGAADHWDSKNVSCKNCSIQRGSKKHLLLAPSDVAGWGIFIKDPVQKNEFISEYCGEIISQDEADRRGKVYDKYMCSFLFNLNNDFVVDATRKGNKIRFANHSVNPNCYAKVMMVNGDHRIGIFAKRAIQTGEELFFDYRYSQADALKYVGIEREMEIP
T1 sequence (O75530 whole entry partner): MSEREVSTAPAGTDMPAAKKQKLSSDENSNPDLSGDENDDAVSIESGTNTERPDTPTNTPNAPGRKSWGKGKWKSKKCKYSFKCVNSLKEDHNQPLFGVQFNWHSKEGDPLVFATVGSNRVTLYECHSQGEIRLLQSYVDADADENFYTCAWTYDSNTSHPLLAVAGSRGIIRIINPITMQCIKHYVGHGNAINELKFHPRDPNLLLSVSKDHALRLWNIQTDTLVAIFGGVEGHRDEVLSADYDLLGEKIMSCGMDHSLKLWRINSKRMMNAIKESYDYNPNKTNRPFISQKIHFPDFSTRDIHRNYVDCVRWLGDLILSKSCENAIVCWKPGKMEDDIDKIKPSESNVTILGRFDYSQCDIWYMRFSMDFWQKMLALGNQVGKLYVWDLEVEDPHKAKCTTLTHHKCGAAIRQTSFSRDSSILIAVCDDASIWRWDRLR
T1 sequence (Q15022 whole entry partner): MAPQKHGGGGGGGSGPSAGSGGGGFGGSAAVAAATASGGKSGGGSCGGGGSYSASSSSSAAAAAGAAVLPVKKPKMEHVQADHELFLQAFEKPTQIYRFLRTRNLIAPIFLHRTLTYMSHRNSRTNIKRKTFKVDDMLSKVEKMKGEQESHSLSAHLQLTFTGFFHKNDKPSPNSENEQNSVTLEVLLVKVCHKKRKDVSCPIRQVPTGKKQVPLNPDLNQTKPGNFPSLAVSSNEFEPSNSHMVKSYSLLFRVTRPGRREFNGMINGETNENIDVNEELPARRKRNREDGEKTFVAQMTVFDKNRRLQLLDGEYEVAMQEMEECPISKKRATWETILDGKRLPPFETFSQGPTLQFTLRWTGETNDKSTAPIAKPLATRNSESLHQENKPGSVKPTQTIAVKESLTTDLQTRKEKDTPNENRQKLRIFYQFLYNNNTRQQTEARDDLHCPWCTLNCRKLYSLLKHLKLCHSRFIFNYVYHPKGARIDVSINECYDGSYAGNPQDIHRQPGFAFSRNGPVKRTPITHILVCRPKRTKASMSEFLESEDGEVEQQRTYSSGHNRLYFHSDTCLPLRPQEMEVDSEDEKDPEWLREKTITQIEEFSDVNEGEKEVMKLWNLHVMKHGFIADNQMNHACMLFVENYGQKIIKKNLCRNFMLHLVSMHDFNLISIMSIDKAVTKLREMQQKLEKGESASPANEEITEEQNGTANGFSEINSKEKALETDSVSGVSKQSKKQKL
T1 sequence (Q09028 whole entry partner): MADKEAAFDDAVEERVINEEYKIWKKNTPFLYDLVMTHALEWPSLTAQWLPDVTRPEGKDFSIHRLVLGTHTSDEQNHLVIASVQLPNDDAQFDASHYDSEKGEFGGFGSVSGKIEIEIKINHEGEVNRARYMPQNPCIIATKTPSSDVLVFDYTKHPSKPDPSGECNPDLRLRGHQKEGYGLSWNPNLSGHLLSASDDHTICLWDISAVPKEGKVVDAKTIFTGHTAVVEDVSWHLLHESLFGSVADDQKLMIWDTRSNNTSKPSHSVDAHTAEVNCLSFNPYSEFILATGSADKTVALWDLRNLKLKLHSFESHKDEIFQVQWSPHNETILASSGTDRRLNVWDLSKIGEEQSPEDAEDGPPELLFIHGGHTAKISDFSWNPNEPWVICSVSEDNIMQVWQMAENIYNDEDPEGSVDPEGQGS
T1 sequence (Q6ZN18 whole entry partner): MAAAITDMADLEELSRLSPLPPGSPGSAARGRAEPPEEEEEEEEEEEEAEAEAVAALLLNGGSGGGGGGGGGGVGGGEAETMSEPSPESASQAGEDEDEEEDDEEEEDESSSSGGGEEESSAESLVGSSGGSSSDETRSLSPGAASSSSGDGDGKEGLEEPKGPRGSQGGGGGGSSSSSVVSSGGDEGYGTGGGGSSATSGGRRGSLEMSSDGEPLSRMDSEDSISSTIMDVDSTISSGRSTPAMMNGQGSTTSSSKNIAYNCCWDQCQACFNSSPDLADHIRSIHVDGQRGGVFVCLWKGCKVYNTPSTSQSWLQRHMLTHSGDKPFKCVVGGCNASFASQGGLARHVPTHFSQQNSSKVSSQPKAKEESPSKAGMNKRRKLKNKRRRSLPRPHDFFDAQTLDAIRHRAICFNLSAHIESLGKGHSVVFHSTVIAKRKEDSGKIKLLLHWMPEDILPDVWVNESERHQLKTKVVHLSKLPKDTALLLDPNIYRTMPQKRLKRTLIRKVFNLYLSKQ

| IC50 | Compound |
| --- | --- |
| 2500 nM | Cc1cc(=O)c(CNC(=O)c2cc(Cl)cc(OC3CCNCC3)c2C)c(C)[nH]1 [Example 9, 5-Chloro-N-((2,6-dimethyl-4-oxo-1,4-dihydropyridin-3-yl)methyl)-2-methyl-3-(piperidin-4-yloxy)benzamide] |
| 3160 nM | Cc1cc(=O)c(CNC(=O)c2cc(Cl)cc(OC3CCN(c4ccncn4)CC3)c2C)c(C)o1 [Example 5, 5-Chloro-N-((2,6-dimethyl-4-oxo-4H-pyran-3-yl)methyl)-2-methyl-3-((1-(pyrimidin-4-yl)piperidin-4-yl)oxy)benzamide] |
| 40 nM | Cc1cc(=O)c(CNC(=O)c2cc(Cl)cc(O[C@H]3CC[C@H](C(=O)NCc4ccccc4)CC3)c2C)c(C)[nH]1 [Example 4, 3-(((trans)-4-(Benzylcarbamoyl)cyclohexyl)oxy)-5-chloro-N-((2,6-dimethyl-4-oxo-1,4-dihydropyridin-3-yl)methyl)-2-methylbenzamide] |
| 50 nM | CCN(c1cc(Br)cc(C(=O)NCc2c(C)[nH]c(C)c(N)c2=O)c1C)[C@H]1CC[C@H](N2CCOCC2)CC1 [Example 20, N-((5-Amino-2,6-dimethyl-4-oxo-1,4-dihydropyridin-3-yl)methyl)-5-bromo-3-(ethyl((1r,4r)-4-morpholinocyclohexyl)amino)-2-methylbenzamide] |
| 32 nM | CCN(c1cc(Cl)cc(C(=O)NCc2c(C)[nH]c(C)c(N)c2=O)c1C)C1CCOCC1 [Example 17] |
| 795 nM | Cc1cc(=O)c(CNC(=O)c2cc(Cl)cc(OC3CCN(C(=O)OC(C)(C)C)CC3)c2C)c(C)[nH]1 [Example 8, tert-Butyl 4-(5-chloro-3-(((2,6-dimethyl-4-oxo-1,4-dihydropyridin-3-yl)methyl)carbamoyl)-2-methylphenoxy)piperidine-1-carboxylate] |
| 395 nM | Cc1cc(=O)c(CNC(=O)c2cc(Cl)cc(O[C@H]3CC[C@H](N(C)C)CC3)c2C)c(C)[nH]1 [Example 14, 5-Chloro-N-((2,6-dimethyl-4-oxo-1,4-dihydropyridin-3-yl)methyl)-3-(((trans)-4-(dimethylamino)cyclohexyl)oxy)-2-methylbenzamide] |
| 40 nM | CCN(c1cc(Br)cc(C(=O)NCc2c(C)[nH]c(C)cc2=O)c1C)C1CCOCC1 [Example 15, 5-Bromo-N-((2,6-dimethyl-4-oxo-1,4-dihydropyridin-3-yl)methyl)-3-(ethyl(tetrahydro-2H-pyran-4-yl)amino)-2-methylbenzamide] |
| 40 nM | CCN(c1cc(Cl)cc(C(=O)NCc2c(C)oc(C)cc2=O)c1C)[C@H]1CC[C@H](N(C)C)CC1 [Example 6, 5-Chloro-N-((2,6-dimethyl-4-oxo-4H-pyran-3-yl)methyl)-3-(((trans)-4-(dimethylamino)cyclohexyl)(ethyl)amino)-2-methylbenzamide] |
| 795 nM | Cc1cc(=O)c(CNC(=O)c2cc(Cl)cc(O[C@H]3CC[C@H](N4CCCC4)CC3)c2C)c(C)[nH]1 [Example 12, 5-Chloro-N-((2,6-dimethyl-4-oxo-1,4-dihydropyridin-3-yl)methyl)-2-methyl-3-(((1r,4r)-4-(pyrrolidin-1-yl)cyclohexyl)oxy)benzamide] |
| 251 nM | Cc1cc(=O)c(CNC(=O)c2cc(Cl)cc(OC3CCN(c4ccncn4)CC3)c2C)c(C)[nH]1 [Example 3, 5-Chloro-N-((2,6-dimethyl-4-oxo-1,4-dihydropyridin-3-yl)methyl)-2-methyl-3-((1-(pyrimidin-4-yl)piperidin-4-yl)oxy)benzamide] |
| 3 nM | CCN(c1cc(Cl)cc(C(=O)NCc2c(C)[nH]c(C)cc2=O)c1C)[C@H]1CC[C@H](N(C)C)CC1 [Example 16, 5-Chloro-N-((2,6-dimethyl-4-oxo-1,4-dihydropyridin-3-yl)methyl)-3-(((trans)-4-(dimethylamino)cyclohexyl)(ethyl)amino)-2-methylbenzamide] |
| 200 nM | Cc1cc(=O)c(CNC(=O)c2cc(Cl)cc(OC3CCN(C(=O)OCc4ccccc4)CC3)c2C)c(C)[nH]1 [Example 1, Benzyl 4-(5-chloro-3-(((2,6-dimethyl-4-oxo-1,4-dihydropyridin-3-yl)methyl)carbamoyl) -2-methylphenoxy)piperidine-1-carboxylate] |
| 32 nM | CCN(c1cc(Br)cc(C(=O)NCc2c(C)[nH]c(C)c(N)c2=O)c1C)[C@H]1CC[C@H](N(C)C)CC1 [Example 18, N-((5-Amino-2,6-dimethyl-4-oxo-1,4-dihydropyridin-3-yl)methyl)-5-bromo-3-(((1r,4r)-4-(dimethylamino)cyclohexyl)(ethyl)amino)-2-methylbenzamide] |
| 6310 nM | Cc1cc(=O)c(CNC(=O)c2cc(Cl)cc(OC3CCOCC3)c2C)c(C)[nH]1 [Example 2, 5-Chloro-N-((2,6-dimethyl-4-oxo-1,4-dihydropyridin-3-yl)methyl)-2-methyl-3-((tetrahydro-2H-pyran-4-yl)oxy)benzamide] |
| 40 nM | CCN(c1cc(Br)cc(C(=O)NCc2c(C)[nH]c(C)cc2=O)c1C)[C@H]1CC[C@H](N(C)C)CC1 [Example 19, 5-Bromo-N-((2,6-dimethyl-4-oxo-1,4-dihydropyridin-3-yl)methyl)-3-(((1r,4r)-4-(dimethylamino)cyclohexyl)(ethyl)amino)-2-methylbenzamide] |
| 5000 nM | Cc1cc(=O)c(CNC(=O)c2cc(Cl)cc(OC3CCN(C)CC3)c2C)c(C)[nH]1 [Example 13, 5-Chloro-N-((2,6-dimethyl-4-oxo-1,4-dihydropyridin-3-yl)methyl)-2-methyl-3-((1-methylpiperidin-4-yl)oxy)benzamide] |
